Reference: patent US20130079287A1, “CAFFEOYLALPHANEOENDORPHIN PEPTIDE DERIVATIVE AND USE THEREOF AS ANTI-ITCHING AND ANTI-ATOPIC AGENTS” (priority 2011, published 2013)
Values joined by “and” are separate entries in the source; they are usually repeats but may differ in a detail not shown here. Equal values may be shown once. Marks after values point to notes of the source that are not given here. Where a SMILES comes first, the peptide text is derived from it. Where no end group is shown, it is not given here. The star is where a group is joined. Caffeoyl = O=C(/C=C/c1ccc(O)c(O)c1)*

Experiments:
[1] = tested on: peptidase derived from the cell disruption solution of keratinocyte; test: Stability to peptidase, cell disruption solution of keratinocyte; conditions: 10,000 ppm, 37° C., 6 hours
Method: (§1) After culturing at 37° C. for 6 hours, the residual contents were analyzed, and the existing contents were compared and evaluated on a percentage (%) to the initial existing contents.

[2] = tested on: peptidase derived from the cell disruption solution of fibroblast; test: Stability to peptidase, cell disruption solution of fibroblast; conditions: 10,000 ppm, 37° C., 6 hours
Method: as §1

NZW Rabbit skins = test: Skin irritation safety test (topical toxicity); format: in vivo, New Zealand White-Rabbit; parameters: key to Erythema & Eschar score: 0: Absolutely no erythema; 1: Very light erythema (barely identifiable level with the naked eye); 2: Obvious erythema; 3: A little serious erythema; 4: Serious erythema (carrot color) and crust formation; key to clinical signs: —: Normal; conditions: for clinical signs: female rabbit; for Edema score, Average / Edema score, Sum / Erythema & Eschar score, Average / Erythema & Eschar score, Sum: 6 animals
Method: In order to confirm the safety of caffeoyl peptide derivative according to the present invention to a human body skin when applying besides a skin that is an expected first human body application method, a topical toxicity skin irritation safety that is pre-clinical test method of pharmaceuticals was verified. The safety verification was performed by asking to Korea Research Institute of Chemical Technology that is an approved GLP Certificate Authority; the maximum application concentration range to skin irritation during topical toxicity was set at 10 mg/ml concentration, and then it was tested that irritant to a skin at the above concentration was not existed. For the above test, at least 6 of young and healthy white rabbits (New Zealand White-Rabbit, 2.0˜3.0 kg) were used. After selecting only healthy rabbits through observing a general symptom every day for 5 days during an accommodating period from an obtaining day, hairs of the abdominal regions of the selected rabbits was shaved away and then 6 rabbits with normal skins were used for test. […] An keeping environment was simply as follows: the test was performed in a rabbit keeping room in the institute by setting the temperature of 22° C., the relative humidity of 50%, a number of ventilation of 10˜15 number/hr, lighting of 12 h lights-on/12 h lights-off (08:00˜20:00), an intensity of illumination of 150˜300 Lux. For monitoring of keeping environment, whole humidity in an animal room was measured by an auto-measurer and environment conditions, such as, an intensity of illumination were regularly measured during a test period. As a result of environment measurement in an animal room, there was no change to affect to the test. The animals were kept individually in a stainless keeping box (380×480×300 mm, JungDo Industry) during accommodation, inspection, and observation periods. Feeds that was feeds for Rabbits, experiment animals, supplied from Cargillagripurina Cor. (Chonbuk, Gunsan-si Soyong dong 56-4) was freely taken by the animals, and water that was a filtered water through UV irradiation was freely taken by using a water bottle. In order to confirm the contaminant in the feeds and water, the contaminant of feeds was confirmed by receiving the feed report card according to regular test of manufacturer from a feeds supplier, and the contaminant of water was confirmed through the regular test according to applicable standard working water procedure (SOPs) of the institute.
The caffeoylalphaneoendorphin peptide derivative that was a test material prepared from Example 1 was dissolved in a concentration of 10 mg/ml (10,000 ppm), and then 0.5 ml per each animal was used by using the following method. […] The abraded skins were made to have a scratch without blood by using a needle end of syringe so that the horny layer of the skin was damaged, but the corium of the skin was not damaged. After the test materials were applied to one site of abraded skins and one site of intact skins, the sites were occlusive-patched with non-irritative tape and Coban for 24 hours. Control regions were applied with sterilized gauze wetted with sterilized distilled water by using the same method as the above (see FIG. 4).
In order to observe as to whether skin irritation was occurred, a change of general symptoms and as to whether animals were killed were observed during 72 hours after completing the application of test materials as the observation of general symptoms. In addition, the body weights per individual were measured immediately before applying the test materials and at 72 hours after applying the test materials. […] The evaluation of skin response and decision of irritant were performed based on the evaluation table of skin response as disclosed in the following Table 1. The decision of irritant content to the result was performed according to a calculation method of P.I.I. (Primary Irritation Index) by Draize, which is well used, generally (see Table 2).

[3] = Physical stability test under alternating temperature; format: physicochemical; conditions: alternating temperature 4/20/40° C. at 8 h interval, up to 60 days, naked eye
From the text: The physical stability under the condition of severe alternating temperature is an essential factor in the terms of the product property to be exposed to various external atmospheres in the case of cosmetics. The caffeoylalphaneoendorphin peptide derivative prepared from Example 1 has an increased stability to oxidation rather than that of caffeic acid in an aqueous solution. In order to confirm the increased physical stability, it was stored under the condition of alternating temperature for certain period time, and then its degradation degree was measured.
Firstly, 10,000 ppm concentration of caffeoylalphaneoendorphin peptide derivative aqueous solution was placed under the conditions of alternating temperatures, that is, low temperature (4° C.), room temperature (20° C.), and high temperature (40° C.) that were repeated at an interval of 8 hours, and then the physical stability was measured by the naked eye and HPLC Analysis for 30 days, 60 days, and 90 days.

[4] = test sites, abraded skin, 24 hour
[5] = test sites, abraded skin, 72 hour
[6] = test sites, intact skin, 24 hour
[7] = test sites, intact skin, 72 hour

CC(C)C[C@H](NC(=O)[C@H](Cc1ccccc1)NC(=O)CNC(=O)CNC(=O)[C@H](Cc1ccc(O)cc1)NC(=O)/C=C/c1ccc(O)c(O)c1)C(=O)N[C@@H](CCCNC(=N)N)C(=O)N[C@@H](CCCCN)C(=O)N[C@@H](Cc1ccc(O)cc1)C(=O)N1CCC[C@H]1C(=O)N[C@@H](CCCCN)C(=O)O [Caffeoyl (R1, R2, and R5 are hydrogen, and R3 and R4 are hydroxy)-alphaneoendorphin Peptide Derivative] (Caffeoyl-YGGFLRKYPK-OH)
degradation by peptidase [1]: almost not degraded | increase of existing contents versus alphaneoendorphin ([1]; HPLC): 6.1±1.3 times | degradation by peptidase [2]: almost not degraded | increase of existing contents versus alphaneoendorphin ([2]; HPLC): 5.9±2.1 times | Body weights (NZW Rabbit skins; 0 hours (immediately before applying), per animal): 2237.2 g and 2511.9 g and 2684.9 g and 2408.4 g and 2478.1 g and 2347.3 g | changes of body weights of all animals (NZW Rabbit skins; 0 to 72 hours): normally increased | Body weight gains (NZW Rabbit skins; 0 to 72 hours, per animal): 76.2 g and 119.5 g and 103.1 g and 88.3 g and 133.6 g and 107.1 g | toxicity in skin irritation test of topical toxicity (NZW Rabbit skins; 10 mg/ml): no toxicity | Irritant Evaluation by P.I.I. (NZW Rabbit skins; 10 mg/ml applied over NZW Rabbit skins): none irritant | clinical signs (NZW Rabbit skins; 10 mg/ml, 0.5 ml per animal, 0 hours after application, per animal): — | clinical signs (NZW Rabbit skins; 10 mg/ml, 0.5 ml per animal, 24 hours after application, per animal): — | clinical signs (NZW Rabbit skins; 10 mg/ml, 0.5 ml per animal, 48 hours after application, per animal): — | clinical signs (NZW Rabbit skins; 10 mg/ml, 0.5 ml per animal, 72 hours after application, per animal): — | Mortality (Number of dead animals/Number of total animals) (NZW Rabbit skins; 10 mg/ml, 0.5 ml per animal, female rabbits, 72 hours): 0/6^a | Body weights (NZW Rabbit skins; 72 hours after application, per animal): 2313.4 g and 2631.4 g and 2788.0 g and 2496.7 g and 2611.7 g and 2454.4 g | death or unusual symptoms related to the application (NZW Rabbit skins; during the test period): no death or unusual symptoms | P.I.I (Primary Irritation Index) (NZW Rabbit skins; test sites, 10 mg/ml, (Sum or mean at 24 and 72 hrs)/4): 0.0 | Edema score, Average (NZW Rabbit skins; [4]): 0 | Edema score, Sum (NZW Rabbit skins; [4]): 0 | Erythema & Eschar score, Average (NZW Rabbit skins; [4]): 0 | Erythema & Eschar score, Sum (NZW Rabbit skins; [4]): 0 | Erythema & Eschar score (NZW Rabbit skins; test sites, abraded skin, 24 hour, per animal): 0 | Edema score, Average (NZW Rabbit skins; [5]): 0 | Edema score, Sum (NZW Rabbit skins; [5]): 0 | Erythema & Eschar score, Average (NZW Rabbit skins; [5]): 0 | Erythema & Eschar score, Sum (NZW Rabbit skins; [5]): 0 | Erythema & Eschar score (NZW Rabbit skins; test sites, abraded skin, 72 hour, per animal): 0 | Sum of Averages (NZW Rabbit skins; test sites, erythema & eschar and edema, 24 and 72 hour): 0.0 | Edema score, Average (NZW Rabbit skins; [6]): 0 | Edema score, Sum (NZW Rabbit skins; [6]): 0 | Erythema & Eschar score, Average (NZW Rabbit skins; [6]): 0 | Erythema & Eschar score, Sum (NZW Rabbit skins; [6]): 0 | Erythema & Eschar score (NZW Rabbit skins; test sites, intact skin, 24 hour, per animal): 0 | Edema score, Average (NZW Rabbit skins; [7]): 0 | Edema score, Sum (NZW Rabbit skins; [7]): 0 | Erythema & Eschar score, Average (NZW Rabbit skins; [7]): 0 | Erythema & Eschar score, Sum (NZW Rabbit skins; [7]): 0 | Erythema & Eschar score (NZW Rabbit skins; test sites, intact skin, 72 hour, per animal): 0

O=C(O)/C=C/c1ccc(O)c(O)c1 [caffeic acid]
acidification of aqueous solution (change of transparency) [3]: serious acidification

YGGFLRKYPK [alphaneoendorphin]
degradation by peptidase [1]: considerably degraded | degradation by peptidase [2]: considerably degraded
